Test results as given in the supplement of paper PMC10933113.
± gives the uncertainty stated by the source.

Legend:
[1] = test system: KeratinoSens (HaCaT ARE-luciferase) cells; assay: efficacy of ARE luciferase induction relative to DMSO (% activity over DMSO); higher = stronger induction; conditions: exposure time: 24 h
[2] = test system: lysine peptide Ac-RFAAKAA-COOH; assay: efficacy of lysine peptide change (negative = depletion) (% activity); higher = less depletion; conditions: incubation time: 24 h
[3] = test system: THP-1; assay: efficacy of IL-8 induction relative to DMSO (% activity); higher = stronger induction; conditions: exposure time: 18 h
[4] = test system: cysteine peptide Ac-RFAACAA-COOH; assay: efficacy of cysteine peptide change (negative = depletion) (% activity); higher = less depletion; conditions: incubation time: 24 h
[5] = test system: KeratinoSens (HaCaT ARE-luciferase) cells; assay: cytotoxicity AC50 (CellTiter-Fluor viability); higher = less cytotoxic; conditions: exposure time: 24 h
[6] = test system: cysteine peptide Ac-RFAACAA-COOH; assay: AC50 of cysteine peptide concentration-response (direction given by sign of efficacy); higher = less potent; conditions: incubation time: 24 h

| SMILES | efficacy of ARE luciferase induction [1] | efficacy of lysine peptide change [2] | efficacy of IL-8 induction [3] | efficacy of cysteine peptide change [4] | cytotoxicity AC50 [5] [µM] | AC50 [6] [µM] |
| --- | --- | --- | --- | --- | --- | --- |
| C=CC(=O)OCCn1c(=O)n(CCOC(=O)C=C)c(=O)n(CCOC(=O)C=C)c1=O | 47.2 ± 67 | -0.37 ± 14 | 20.8 ± 5.9 | -99.7 ± 6.5 | 24.7 ± 9.8 | 7.11 ± 0.82 |
| O=C1C=CC(=O)c2ccccc21 [1,4-NAPHTHOQUINONE*] | -40.2 ± 8.4 | -25.7 ± 2.1 | 37.7 ± 15 | -107 ± 5.1 | 8.95 ± 1 | 0.53 ± 0.2 |
| O=C(O)c1cc(O)c2ccccc2c1O [1,4-dihydroxy-2-naphthoic acid*] | -34 ± 5.3 | -107 ± 3.6 | 31.2 ± 8.8 | -105 ± 11 | 13.7 ± 2.3 | 4.18 ± 2.3 |
| Nc1cc(Cl)ccc1O [2-Amino-4-chlorophenol] | 60.7 ± 16 | -22.2 ± 9 | 14 ± 3 | -103 ± 8.1 | 48.3 ± 3.1 | 2.44 ± 1.1 |
| Nc1ccc2ccccc2c1 [2-Naphthylamine] | 111 ± 32 | -10.1 ± 12 | 5.33 ± 9.2 | -65.5 ± 4.2 | 70.8 | 0.53 ± 0.23 |
| N#Cc1nc(Cl)c(Cl)c(Cl)c1Cl [3,4,5,6-Tetrachloro-2-pyridinecarbonitrile] | 38 ± 64 | 43.7 ± 15 | 85.9 ± 32 | -49.4 ± 8.4 | 10 ± 3.6 | 66.8 ± 29 |
| O=[N+]([O-])c1ccc(O/N=C/c2cc(Br)c(O)c(Br)c2)c([N+](=O)[O-])c1 [Bromofenoxim] | 12.5 ± 12 | 62.9 ± 22 | 0 | -97 ± 11 | 34.2 ± 2.2 | 8.35 ± 4.5 |
| Oc1c(Br)cc(Br)c2cccnc12 [Broxyquinoline] | -33.3 ± 3 | -14.3 ± 14 | 55.7 ± 43 | -69.9 ± 28 | 4 ± 0.46 | 2.44 ± 1.8 |
| O=C1C(Cl)=C(Cl)C(=O)C(Cl)=C1Cl [Chloranil] | 32.8 ± 9.5 | -124 ± 7.8 | 25.9 ± 3.2 | -73.9 ± 2.3 | 28.2 | 0.65 ± 0.34 |
| ClC1=C(Cl)C2(Cl)C3C(Cl)C(Cl)CC3C1(Cl)C2(Cl)Cl (centres undefined) [Chlordane] | -18.6 ± 53 | -2.38 ± 11 | 49.6 ± 10 | -56.1 ± 16 | 41.4 ± 2.8 | 50.3 ± 5.8 |
| COC(=O)Nc1nc2ccc(C(=O)C3CC3)cc2[nH]1 [Cyclobendazole] | 21.4 ± 9.4 | -14 ± 5.3 | 24.9 ± 13 | -42.3 ± 2.6 | 3 ± 0.85 | 10.1 ± 5.7 |
| CCOP(=S)(OCC)SC(CCl)N1C(=O)c2ccccc2C1=O (centres undefined) [Dialifor] | 63 ± 32 | -69.5 ± 7.4 | 5.64 ± 12 | -101 ± 9.9 | 66.8 ± 15 | 3.87 ± 0.66 |
| CO[C@@H]1[C@H](OC(=O)/C=C/C=C/C=C/C=C/C(=O)O)CC[C@]2(CO2)[C@H]1[C@@]1(C)O[C@@H]1CC=C(C)C [Fumagillin] | -9.86 ± 16 | 19.2 ± 21 | 0 | -117 ± 8.1 |  | 23 ± 9 |
| OCc1ccco1 [Furfuryl alcohol] | 37.8 ± 37 | -37.2 ± 5.8 | 0 | -74.1 ± 7.2 |  | 74.3 ± 13 |
| CC[C@@]1(O)C(=O)OCc2c1cc1n(c2=O)Cc2c-1nc1ccccc1c2/C=N/OC(C)(C)C [Gimatecan] | 57.7 ± 22 | 30.4 ± 65 | 24.2 ± 3.5 | -75.2 ± 18 | 0.99 ± 0.6 | 38.5 ± 5.3 |
| ClC1=C(Cl)C(Cl)(Cl)C(Cl)=C1Cl [Hexachlorocyclopentadiene] | 48.2 ± 5.1 | -11.3 ± 2.7 | 83.1 ± 8.1 | -137 ± 8.4 |  | 30.4 ± 13 |
| COP(=S)(Oc1cc(Cl)c(Br)cc1Cl)c1ccccc1 (centres undefined) [Leptophos] | 21.4 ± 11 | 3.37 ± 19 | 33.4 ± 20 | -94.8 ± 3.7 | 46.5 ± 3.1 | 41.6 ± 5.3 |
| C=CC(C)(CCC=C(C)C)OC(=O)CC(C)C (centres undefined) [Linalyl isovalerate] | 4.06 ± 7 | 2.12 ± 19 | 0 | -30.6 ± 8 |  | 6.04 ± 4.1 |
| CCOC(=O)CC(SP(=S)(OC)OC)C(=O)OCC (centres undefined) [Malathion] | 10.2 ± 27 | 38.6 ± 20 | 1.28 ± 2.2 | -114 ± 8.5 |  | 3.05 ± 0.2 |
| Nc1ccc(Nc2ccccc2)cc1 [N-Phenyl-1,4-benzenediamine] | 48.5 ± 28 | -11.4 ± 12 | 5.67 ± 11 | -101.7 ± 0.97 |  | 7.77 ± 3.2 |
| O=C(N/N=C/c1ccc([N+](=O)[O-])o1)c1cc([N+](=O)[O-])cc([N+](=O)[O-])c1O [Nifursol] | 25.2 ± 9.3 | -10.9 ± 19 | 0 | -105 ± 6.6 |  | 77.9 ± 29 |
| N#CCC#N [Propanedinitrile] | 31.6 ± 5.9 | 8.33 ± 14 | 0 | -64.6 ± 10 |  | 72.9 ± 20 |
| Oc1ccc(/C=C/c2cc(O)cc(O)c2)cc1 [Resveratrol] | 29.2 ± 6.2 | -22.5 ± 15 | 3.12 ± 5.4 | -69.8 ± 10 |  | 25.9 ± 11 |
| CS/C(C)=N\OC(=O)N(C)SN(C)C(=O)O/N=C(\C)SC [Thiodicarb] | -25.2 ± 33 | 38.2 ± 2.7 | 10.8 ± 9.8 | -96.8 ± 3.2 |  | 0.59 ± 0.11 |
| O=C(CS)Nc1ccccc1 [Thioglycolic acid anilide] | -15.9 ± 47 | 28 ± 5.4 | 35.1 ± 9.2 | -109 ± 7.9 |  | 2.54 ± 0.48 |
| CCN(CC)CCSC(=O)C(c1ccccc1)c1ccccc1 [Thiphenamil] | 63.3 ± 29 | 17.2 ± 18 | 8.63 ± 8 | -82.9 ± 1.6 |  | 18.7 ± 3.4 |
